# From US8501732B2, “Aminomethyl quinolone compounds” (Hoffmann-La Roche Inc., priority 2011, dated 2013)
# Key:
# JNK1 = JNK1 (Homo sapiens (Human), UniProt P45983); assay: In Vitro JNK1 Assay (TR-FRET, phosphorylation of GST-c-Jun); format: biochemical; conditions: 0.2 nM active JNK1 kinase, 26.7 nM GST-c-Jun, 2 μM ATP, 30 min at room temperature
# In short: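 GST-c-Jun (residues 1-79) phosphorylation by JNK1 in 50 mM HEPES pH 7.0, MgCl2, 1 mM DTT, 0.1 mM Na3VO4, 0.2 mg/mL BSA, 30 min at room temperature. Stopped with EDTA plus anti-phospho-c-Jun antibody and read by TR-FRET 1 hr later. IC50 from percent inhibition over 10 serial dilutions.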
# [1] = tested on: phospho(Ser63)-c-jun in HK-2 cells; assay: Cell-Based Assay for JNK Inhibitors (in-cell ELISA, phospho(Ser63)-c-jun after TNFα); conditions: HK-2 cells (human proximal tubule cells), 60 minutes compound, then 10 ng/mL TNFα for 30 minutes
# In short: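 HK-2 human proximal tubule cells were seeded at 40,000 cells/well, cultured 24 h, then serum-starved 16–24 h before TNFα stimulation with compound. Phospho(Ser63)-c-jun was quantified by in-cell ELISA on fixed, permeabilised cells, using a rabbit phospho-specific primary (overnight, 4 °C) and an HRP-linked anti-rabbit secondary. Absorbance was read at 450 nm.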
# Sequence of JNK1 (P45983 whole entry, the tested form may be a part): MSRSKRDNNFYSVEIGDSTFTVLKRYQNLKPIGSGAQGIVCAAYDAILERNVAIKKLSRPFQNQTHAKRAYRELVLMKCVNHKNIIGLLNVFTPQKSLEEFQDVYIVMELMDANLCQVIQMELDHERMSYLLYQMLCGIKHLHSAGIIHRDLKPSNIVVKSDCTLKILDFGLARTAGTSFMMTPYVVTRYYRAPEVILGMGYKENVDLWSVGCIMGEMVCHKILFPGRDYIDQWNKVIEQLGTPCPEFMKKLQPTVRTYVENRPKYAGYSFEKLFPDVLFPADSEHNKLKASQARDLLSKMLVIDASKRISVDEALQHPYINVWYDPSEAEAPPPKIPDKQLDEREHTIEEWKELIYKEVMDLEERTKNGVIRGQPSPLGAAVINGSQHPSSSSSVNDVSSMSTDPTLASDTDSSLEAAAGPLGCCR
Compound,IC50 (JNK1),EC50 [1]
"O=C(NCc1cn(-c2ccccc2)c2cc(Cl)ccc2c1=O)c1ccc(-c2ncn[nH]2)cc1 [Example I-43, N-(7-Chloro-4-oxo-1-phenyl-1,4-dihydro-quinolin-3-ylmethyl)-4-(2H-[1,2,4]triazol-3-yl)-benzamide]",0.1 µM,100 µM
"COC(=O)c1c(CNC(=O)c2ccc(Cl)nc2)c(=O)c2ccc(F)cc2n1-c1ccccc1 [Example I-170, 3-{[(6-Chloro-pyridine-3-carbonyl)-amino]-methyl}-7-fluoro-4-oxo-1-phenyl-1,4-dihydroquinoline-2-carboxylic acid methyl ester]",0.01 µM,44 µM
"O=C(NCc1cn(-c2ccccc2)c2cc(Cl)ccc2c1=O)c1ccc(N(CCO)CCO)nc1 [Example I-64, 6-[Bis-(2-hydroxy-ethyl)-amino]-N-(7-chloro-4-oxo-1-phenyl-1,4-dihydro-quinolin-3-ylmethyl)-nicotinamide]",0.018 µM,100 µM
"O=C(NCc1c(-c2ncco2)n(-c2ccccc2)c2ncccc2c1=O)c1ccc(N2CCOCC2)nc1 [Example I-10, 6-Morpholin-4-yl-N-(2-oxazol-2-yl-4-oxo-1-phenyl-1,4-dihydro-[1,8]naphthyridin-3-ylmethyl)-nicotinamide]",0.029 µM,5.2 µM
"CN(C)C(=O)c1c(CNC(=O)c2ccn(Cc3ccccc3)c(=O)c2)c(=O)c2ccc(Cl)cc2n1-c1ccccc1 [Example I-22, 3-{[(1-Benzyl-2-oxo-1,2-dihydro-pyridine-4-carbonyl)-amino]-methyl}-7-chloro-4-oxo-1-phenyl-1,4-dihydro-quinoline-2-carboxylic acid dimethylamide]",0.33 µM,25 µM
"COC(=O)c1c(CNC(=O)c2ccc(F)cc2)c(=O)c2ccc(OC)cc2n1-c1ccccc1 [Example I-166, 3-[(4-Fluoro-benzoylamino)-methyl]-7-methoxy-4-oxo-1-phenyl-1,4-dihydro-quinoline-2-carboxylic acid methyl ester]",0.073 µM,100 µM
"COC(=O)c1ccc(C(=O)NCc2c(C(=O)OC)n(-c3ccccc3)c3cc(Cl)ccc3c2=O)cc1 [Example I-133, 7-Chloro-3-[(4-methoxycarbonyl-benzoylamino)-methyl]-4-oxo-1-phenyl-1,4-dihydro-quinoline-2-carboxylic acid methyl ester]",0.006 µM,13 µM
"COC(=O)c1c(CNC(=O)c2ccc3cc[nH]c3c2)c(=O)c2ccc(C(F)(F)F)nc2n1-c1ccccc1 [Example I-158, 3-{[(1H-Indole-6-carbonyl)-amino]-methyl}-4-oxo-1-phenyl-7-trifluoromethyl-1,4-dihydro-[1,8]naphthyridine-2-carboxylic acid methyl ester]",0.079 µM,10 µM
"O=C(NCc1c(-c2ncco2)n(-c2ccccc2)c2ncccc2c1=O)c1ccn(Cc2ccccc2)c(=O)c1 [Example I-9, 1-Benzyl-2-oxo-1,2-dihydro-pyridine-4-carboxylic acid (2-oxazol-2-yl-4-oxo-1-phenyl-1,4-dihydro-[1,8]naphthyridin-3-ylmethyl)-amide]",0.004 µM,1.2 µM
"COC(=O)c1c(CNC(=O)c2ccc(-c3cnns3)cc2)c(=O)c2ccc(Cl)cc2n1-c1ccccc1 [Example I-124, 7-Chloro-4-oxo-1-phenyl-3-[(4-[1,2,3]thiadiazol-5-yl-benzoylamino)-methyl]-1,4-dihydro-quinoline-2-carboxylic acid methyl ester]",0.017 µM,7.8 µM
"O=C(NCc1cn(-c2ccccc2)c2cc(Cl)ccc2c1=O)c1cnc(N2CCOCC2)s1 [Example I-96, 2-Morpholin-4-yl-thiazole-5-carboxylic acid (7-chloro-4-oxo-1-phenyl-1,4-dihydro-quinolin-3-ylmethyl)-amide]",0.055 µM,100 µM
"NC(=O)c1ccc(C(=O)NCc2c(-c3ncco3)n(-c3ccccc3)c3cc(Cl)ccc3c2=O)cc1 [Example I-4, N-(7-Chloro-2-oxazol-2-yl-4-oxo-1-phenyl-1,4-dihydro-quinolin-3-ylmethyl)-terephthalamide]",0.014 µM,3 µM
"COC(=O)c1c(CNC(=O)c2ccc(S(N)(=O)=O)cc2)c(=O)c2ccc(Cl)cc2n1-c1ccccc1 [Example I-115, 7-Chloro-4-oxo-1-phenyl-3-[(4-sulfamoyl-benzoylamino)-methyl]-1,4-dihydro-quinoline-2-carboxylic acid methyl ester]",0.008 µM,2.4 µM
"O=C(NCc1cn(-c2ccccc2F)c2cc(F)ccc2c1=O)c1ccc(N2CCC(CO)CC2)nc1 [Example I-106, 4-Hydroxymethyl-3,4,5,6-tetrahydro-2H-[1,2′]bipyridinyl-5′-carboxylic acid [7-fluoro-1-(2-fluoro-phenyl)-4-oxo-1,4-dihydro-quinolin-3-ylmethyl]-amide]",0.052 µM,50 µM
"COC(=O)c1c(CNC(=O)C2CCN(C(C)=O)CC2)c(=O)c2ccc(Cl)cc2n1-c1ccccc1 [Example I-130, 3-{[(1-Acetyl-piperidine-4-carbonyl)-amino]-methyl}-7-chloro-4-oxo-1-phenyl-1,4-dihydro-quinoline-2-carboxylic acid methyl ester]",0.22 µM,100 µM
"O=C(NCc1cn(-c2ccccc2)c2cc(Cl)ccc2c1=O)c1ccc(NC2CCOCC2)nc1 [Example I-78, N-(7-Chloro-4-oxo-1-phenyl-1,4-dihydro-quinolin-3-ylmethyl)-6-(tetrahydro-pyran-4-ylamino)-nicotinamide]",0.049 µM,22 µM
"O=C(NCc1cn(-c2ccccc2)c2cc(Cl)ccc2c1=O)c1ccn(Cc2ccccc2Cl)c(=O)c1 [Example I-39, 1-(2-Chloro-benzyl)-2-oxo-1,2-dihydro-pyridine-4-carboxylic acid (7-chloro-4-oxo-1-phenyl-1,4-dihydro-quinolin-3-ylmethyl)-amide]",0.076 µM,10 µM
"COC(=O)c1c(CNC(=O)c2cnn(Cc3ccccc3)c2)c(=O)c2ccc(Cl)cc2n1-c1ccccc1 [Example I-119, 3-{[(1-Benzyl-1H-pyrazole-4-carbonyl)-amino]-methyl}-7-chloro-4-oxo-1-phenyl-1,4-dihydro-quinoline-2-carboxylic acid methyl ester]",0.013 µM,6.3 µM
"COC(=O)c1c(CNC(=O)c2ccc(-c3csc(C)n3)cc2)c(=O)c2ccc(Cl)cc2n1-c1ccccc1 [Example I-127, 7-Chloro-3-{[4-(2-methyl-thiazol-4-yl)-benzoylamino]-methyl}-4-oxo-1-phenyl-1,4-dihydro-quinoline-2-carboxylic acid methyl ester]",0.031 µM,38 µM
"COC(=O)c1c(CNC(=O)c2ccc(N3CCOCC3)cc2)c(=O)c2ccc(Cl)cc2n1-c1ccccc1 [Example I-123, 7-Chloro-3-[(4-morpholin-4-yl-benzoylamino)-methyl]-4-oxo-1-phenyl-1,4-dihydro-quinoline-2-carboxylic acid methyl ester]",0.016 µM,2.2 µM
"COC(=O)c1c(CNC(=O)c2ccc(S(C)(=O)=O)cc2)c(=O)c2ccc(Cl)cc2n1-c1ccccc1 [Example I-109, 7-chloro-3-[(4-methanesulfonyl-benzoylamino)-methyl]-4-oxo-1-phenyl-1,4-dihydroquin-oline-2-carboxylic acid methyl ester]",0.004 µM,5.7 µM
"COCCNc1ccc(C(=O)NCc2cn(-c3ccccc3)c3cc(Cl)ccc3c2=O)cn1 [Example I-74, N-(7-Chloro-4-oxo-1-phenyl-1,4-dihydro-quinolin-3-ylmethyl)-6-(2-methoxy-ethylamino)-nicotinamide]",0.03 µM,27 µM
"CN(C)C(=O)c1c(CNC(=O)c2ccc(S(C)(=O)=O)cc2)c(=O)c2ccc(Cl)cc2n1-c1ccccc1 [Example I-19, 7-Chloro-3-[(4-methanesulfonyl-benzoylamino)-methyl]-4-oxo-1-phenyl-1,4-di-hydro-quinoline-2-carboxylic acid dimethylamide]",0.18 µM,30 µM
"CN(C)c1cc(C(=O)NCc2cn(-c3ccccc3)c3cc(Cl)ccc3c2=O)ccn1 [Example I-41, N-(7-Chloro-4-oxo-1-phenyl-1,4-dihydro-quinolin-3-ylmethyl)-2-dimethyl amino-isonicotinamide]",0.088 µM,28 µM
"O=C(NCc1cn(-c2ccccc2)c2cc(Cl)ccc2c1=O)c1cnc(N2CCC(O)CC2)s1 [Example I-94, 2-(4-Hydroxypiperidin-1-yl)-thiazole-5-carboxylic acid (7-chloro-4-oxo-1-phenyl-1,4-dihydro-quinolin-3-ylmethyl)-amide]",0.036 µM,14 µM
"O=C(NCc1cn(-c2ccccc2)c2cc(Cl)ccc2c1=O)c1ccc2scnc2c1 [Example I-42, Benzothiazole-5-carboxylic acid (7-chloro-4-oxo-1-phenyl-1,4-dihydro-quinolin-3-ylmethyl)-amide]",0.089 µM,25 µM
"COC(=O)c1c(CNc2ncnc3ccccc23)c(=O)c2ccc(Cl)cc2n1-c1ccccc1 [Example I-208, 7-Chloro-4-oxo-1-phenyl-3-(quinazolin-4-ylaminomethyl)-1,4-dihydro-quinoline-2-carboxylic acid methyl ester]",0.06 µM,8.4 µM
